Test results reported in US20220175766A1, “COMPOSITIONS AND METHODS OF TREATMENT” (GB004, Inc., priority 2019, published 2022).
Read-outs that look alike come from different tables or passages of the source.

Experiment: Phase 1a multiple ascending dose study (oral solution): plasma pharmacokinetics
Type: in vivo, human
Conditions: human, plasma, oral; for concentration at 12 h: Hour 12; for concentration at 12 h / concentration at 16 h / concentration at 24 h / concentration at 0.5 h / concentration at 1 h / concentration at 3 h / concentration at 4 h / concentration at 6 h / concentration at 8 h / concentration at 2 h: read-out: Compound 1 concentration, Conc (SD); for concentration at 16 h: Hour 16; for concentration at 24 h: Hour 24; for AUC(0-t): read-out: AUC(0-t), mean; for concentration at 0.5 h: Hour 0.5; for concentration at 1 h: Hour 1; for concentration at 3 h: Hour 3; for concentration at 4 h: Hour 4; for concentration at 6 h: Hour 6; for concentration at 8 h: Hour 8; for AUC: read-out: AUC(0-τ), mean (SD); for concentration at 2 h: Hour 2; for Tmax: read-out: Tmax, median (range)
Protocol: Compound 1 was administered as the HCl-salt (prepared analogously to Example 2.1).
The secondary objective was to characterize the multiple dose pharmacokinetic (PK) parameters of Compound 1, after ascending doses. Secondary endpoints included determination of PK parameters in plasma and urine, fecal excretion and assessment of colonic biopsy samples.
Blood samples were collected at the following time points relative to dose administration on Day 1 and Day 7: pre-dose; 0.5, 1, 2, 3, 4, 6, 8, 12, 16 and 24 hours post dose. Analysis and concentration determinations were performed using a liquid chromatography-mass spectrometry and liquid chromatography-tandem mass spectrometry (LC/MS/MS) method.

[1] = 120 mg, Cohort 2, 120 mg once daily, Day 7
[2] = 120 mg, Cohort 2, 120 mg, Day 1
[3] = 120 mg, Cohort 4, 120 mg once daily, Day 7
[4] = 120 mg, Cohort 4, 120 mg, Day 1
[5] = 240 mg, Cohort 3, 240 mg once daily, Day 7
[6] = 240 mg, Cohort 3, 240 mg, Day 1

CC(C)(C)OC(=O)N1CCN(Cc2ccn(Cc3ccc(Cl)cc3)c(=O)c2O)CC1 [Compound 1, tert-butyl 4-((1-(4-chlorobenzyl)-3-hydroxy-2-oxo-1,2-dihydropyridin-4-yl)methyl)piperazine-1-carboxylate]
concentration at 12 h [1]: 1.41 ng/mL
concentration at 16 h [1]: 1.39 ng/mL
concentration at 24 h [1]: 0 ng/mL
AUC(0-t) [1]: 48.2 ng·h/mL
Cmax (120 mg, Cohort 2, 120 mg once daily, Day 7, read-out: Cmax, mean): 11.4 ng/mL
concentration at 0.5 h [2]: 9.54 ng/mL
concentration at 1 h [2]: 6.08 ng/mL
concentration at 3 h [2]: 1.95 ng/mL
concentration at 4 h [2]: 0 ng/mL
concentration at 6 h [2]: 0 ng/mL
concentration at 8 h [2]: 0 ng/mL
concentration at 12 h [2]: 0 ng/mL
concentration at 16 h [2]: 0 ng/mL
concentration at 24 h [2]: 0 ng/mL
AUC [2]: 27.9 ng·h/mL
Cmax (120 mg, Cohort 2, 120 mg, Day 1, read-out: Cmax, mean (SD)): 9.54 ng/mL
concentration at 0.5 h [3]: 15.6 ng/mL
concentration at 1 h [3]: 9.34 ng/mL
concentration at 2 h [3]: 5.32 ng/mL
concentration at 3 h [3]: 3.69 ng/mL
concentration at 4 h [3]: 2.98 ng/mL
concentration at 6 h [3]: 3.3 ng/mL
concentration at 8 h [3]: 3.03 ng/mL
concentration at 12 h [3]: 2.59 ng/mL
concentration at 16 h [3]: 2.26 ng/mL
concentration at 24 h [3]: 1.92 ng/mL
AUC(0-t) [3]: 75.8 ng·h/mL
Cmax (120 mg, Cohort 4, 120 mg once daily, Day 7, read-out: Cmax, mean): 15.6 ng/mL
concentration at 0.5 h [4]: 11.9 ng/mL
concentration at 1 h [4]: 8.03 ng/mL
concentration at 3 h [4]: 2.68 ng/mL
concentration at 4 h [4]: 1.48 ng/mL
concentration at 6 h [4]: 1.14 ng/mL
concentration at 8 h [4]: 0 ng/mL
concentration at 12 h [4]: 0 ng/mL
concentration at 16 h [4]: 0 ng/mL
concentration at 24 h [4]: 0 ng/mL
AUC [4]: 38.1 ng·h/mL
Cmax (120 mg, Cohort 4, 120 mg, Day 1, read-out: Cmax, mean (SD)): 12 ng/mL
concentration at 0.5 h [5]: 28.5 ng/mL
concentration at 1 h [5]: 20.5 ng/mL
concentration at 2 h [5]: 10.3 ng/mL
concentration at 3 h [5]: 7.61 ng/mL
concentration at 4 h [5]: 6.99 ng/mL
concentration at 6 h [5]: 6.8 ng/mL
concentration at 8 h [5]: 6.44 ng/mL
concentration at 12 h [5]: 4.66 ng/mL
concentration at 16 h [5]: 3.27 ng/mL
concentration at 24 h [5]: 2.53 ng/mL
AUC(0-t) [5]: 139 ng·h/mL
Cmax (240 mg, Cohort 3, 240 mg once daily, Day 7, read-out: Cmax, mean): 28.8 ng/mL
concentration at 0.5 h [6]: 25.7 ng/mL
concentration at 1 h [6]: 15 ng/mL
concentration at 3 h [6]: 5.97 ng/mL
concentration at 4 h [6]: 4.12 ng/mL
concentration at 6 h [6]: 3.39 ng/mL
concentration at 8 h [6]: 3.02 ng/mL
concentration at 12 h [6]: 3.13 ng/mL
concentration at 16 h [6]: 2.25 ng/mL
concentration at 24 h [6]: 1.35 ng/mL
AUC [6]: 91.5 ng·h/mL
Cmax (240 mg, Cohort 3, 240 mg, Day 1, read-out: Cmax, mean (SD)): 25.7 ng/mL
Tmax (Cohort 2, 120 mg, Day 1): 30 min
Tmax (Cohort 3, 240 mg, Day 1): 30 min
Tmax (Cohort 5, 60 mg, Day 1): 30 min
